What was measured:
[1] = set-up: method as in doi:10.1002/14651858.CD008965.pub4, PMID 25640810, PMID 12908848; settings: cited from earlier work
[2] = Single-dose crossover pharmacokinetics of oseltamivir and oseltamivir carboxylate in plasma (HPLC-MS/MS, non-compartmental analysis); format: in vivo, healthy Chinese subjects; settings: fed vs fasting; plasma analyte
Excerpt: This study was developed in healthy subjects in the fasting or postprandial state, using a single-dose, randomized, open-label, two-period, two-sequence, self-crossover design. It authorized by the Ethics Committee of the First Affiliated Hospital of Bengbu Medical College. The ethical approval process complies with the requirements of Good Clinical Practice (GCP), the Declaration of Helsinki and relevant Chinese laws and regulations. Registration number CTR20200764 at 26-Apr-2020. http://www.chinadrugtrials.org.cn/clinicaltrials.searchlist.dhtml.
According to "the Guiding Principles for Human Bioavailability and Bioequivalence test of Pharmaceutical Preparations (2015 Edition)", "the Guiding Principles for Human Bioequivalence Research of Chemical Drug Imitations with Pharmacokinetic Parameters as the End Point Evaluation Indicators", and recommended dose in Tamiflu® instructions, the single oral dose of 75 mg/12.5 mL was determined for the reference preparation and test preparation of this study. […] Assuming one-sided α = 0.05, β = 0.2, %CV of 31.87%, a mean ratio F between the test product and reference product of 1, and the bioequivalence interval of 80.00–125.00%, the sample size of the two-period, crossover study design is 35 cases, calculated by PASS software. […] The quantitative linear range of oseltamivir is 0.500–200 ng/mL, and the LLOQ is 0.500 ng/mL. The quantitative linear range of oseltamivir carboxylate is 4.00–800 ng/mL, and the LLOQ is 4.00 ng/mL.
Pharmacokinetic parameters of oseltamivir and oseltamivir carboxylate were calculated using Phoenix WinNonlin (Pharsight Corporation, 8.3.1) based on individual blood concentrations and sampling time (calculated by actual sampling time) using non-compartmental analysis (NCA), Cmax, Tmax, AUC0-t, AUC0-∞, t1/2, λz, as well as %AUCex for oseltamivir and oseltamivir carboxylate were included. […]

[3] = set-up: method as in earlier work; settings: used for sample size estimation; cited from earlier work
influenza pneumonia = tested on: influenza pneumonia; set-up: method as in PMID 33718494; settings: early treatment compared with late treatment; cited from earlier work

Structure (SMILES) | incidence of other side effects (conjunctivitis, rhinorrhagia, allergy, cardiac arrhythmias, gastrointestinal bleeding, neuropsychiatric events etc.) [1] | incidence of nausea ([1]; most common side effects) | incidence of vomiting ([1]; most common side effects) | Cmax, AUC0-t under fed conditions [2] | change of AUC0-∞ after feeding [2] | intra-individual coefficient of variation (%CV) of AUC [3] | intra-individual coefficient of variation (%CV) of Cmax [3] | reduction in ICU mortality (influenza pneumonia)
CCOC(=O)C1=C[C@@H](OC(CC)CC)[C@H](NC(C)=O)[C@@H](N)C1 [oseltamivir phosphate] | < 1% | 10% | 2–15% |  |  |  |  | 
CCC(CC)O[C@@H]1C=C(C(=O)O)C[C@H](N)[C@H]1NC(C)=O [oseltamivir carboxylate] |  |  |  | lowered | decreases |  |  | 
CCOC(=O)C1=C[C@@H](OC(CC)CC)[C@H](NC(C)=O)[C@@H](N)C1 [oseltamivir] |  |  |  |  | increases | 7.24–7.35% | 21.16–31.87% | 33%

— article PMC9942619, “Oseltamivir phosphate for suspension is bioequivalent to TAMIFLU in healthy volunteers: a randomized, open-label clinical study” (BMC Pharmacology & Toxicology, 2023)
